Measurements as given in PubChem BioAssay (NCI).
“And” between values parts separate entries of the source, which are not always exact repeats. Equal entries are not always repeated.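 The compound was tested at five concentrations on cells cultured in 96-well plates, with a 48-hour exposure period. GI50 = concentration required for 50% inhibition of growth. Definition used: TGI = concentration required for complete inhibition of growth.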

What was measured:
Experiment in all cases: inhibition of tumour cell growth, NCI panel, 48 h
[1] = system: SF-295 CNS
[2] = system: OVCAR-3 ovarian
[3] = system: CCRF-CEM leukemia
[4] = system: COLO 205 colon
[5] = system: OVCAR-5 ovarian
[6] = system: MDA-MB-435
[7] = system: NCI/ADR-RES ovarian
[8] = system: SK-MEL-28 melanoma
[9] = system: LOX IMVI melanoma
[10] = system: SK-MEL-5 melanoma

COc1c2ccoc2c(OC)c2oc(=O)ccc12
TGI [1]: > 100 µM
TGI [2]: > 100 µM
TGI [3]: > 100 µM
TGI [4]: > 100 µM
TGI [5]: > 100 µM
TGI [6]: > 100 µM
TGI [7]: > 100 µM
TGI [8]: > 100 µM
TGI [9]: > 100 µM
TGI [10]: > 100 µM

NCCOCCOCCNc1nc(-c2ccccc2)nc(N2CCN(c3ccccn3)CC2)n1
GI50 [1]: 17.5 µM
TGI [1]: 36 µM
GI50 [2]: 16.6 µM
TGI [2]: 30.4 µM
GI50 [3]: 14.3 µM
TGI [3]: 33.2 µM
GI50 [4]: 6.35 µM
TGI [4]: 21.1 µM
GI50 [5]: 16.1 µM
TGI [5]: 30.4 µM
GI50 [6]: 11.4 µM
TGI [6]: 24.5 µM
GI50 [7]: 16 µM
TGI [7]: 32.4 µM
GI50 [8]: 3.9 µM
TGI [8]: 13.8 µM
GI50 [9]: 8.3 µM
TGI [9]: 21.3 µM
GI50 [10]: 8.37 µM
TGI [10]: 20.9 µM

CNC(=O)c1ccccc1Nc1nc(Nc2cc(OC)c(OC)c(OC)c2)ncc1Br
GI50 [1]: 0.0282 µM
TGI [1]: 0.868 µM
GI50 [2]: 0.0695 µM
TGI [2]: 25 µM
GI50 [3]: 0.0523 µM
TGI [3]: > 19.9 µM
GI50 [4]: 0.0151 µM
TGI [4]: 0.0591 µM
GI50 [5]: 0.0321 µM
TGI [5]: 31.7 µM
GI50 [6]: 0.0546 µM
TGI [6]: 2.11 µM
GI50 [7]: 0.0496 µM
TGI [7]: 1.81 µM
GI50 [8]: 0.0667 µM
TGI [8]: 2.11 µM
GI50 [9]: 0.0183 µM
TGI [9]: 0.0917 µM
GI50 [10]: 0.054 µM
TGI [10]: 1.18 µM

NCC1OC(n2cnc3c(N)ncnc32)CC1O (centres undefined)
TGI [1]: > 100 µM
TGI [2]: > 100 µM
TGI [3]: > 100 µM
TGI [4]: > 100 µM
TGI [5]: > 100 µM
TGI [6]: > 100 µM
TGI [7]: > 100 µM
TGI [8]: > 100 µM
TGI [9]: > 100 µM
TGI [10]: > 100 µM

COc1cc(C(=O)N2CCN(c3ncnc4ccccc34)CC2)c(N)cc1OCc1ccccc1
GI50 [1]: 12.8 µM
TGI [1]: 27.8 µM
GI50 [2]: 11.8 µM
TGI [2]: 25 µM
GI50 [3]: 23.8 µM
TGI [3]: 58.1 µM
GI50 [4]: 5.14 µM
TGI [4]: 20.2 µM
GI50 [5]: 15.3 µM
TGI [5]: 31.5 µM
GI50 [6]: 13.1 µM
TGI [6]: 27.4 µM
GI50 [7]: 16.1 µM
TGI [7]: 35.1 µM
GI50 [8]: 16.5 µM
TGI [8]: 30.5 µM
GI50 [9]: 12.2 µM
TGI [9]: 24.6 µM
GI50 [10]: 11.1 µM
TGI [10]: 23 µM

COc1cc(N(C)C)c(OC)cc1/C=C\c1ccnc2ccccc12
TGI [1]: > 10 µM
TGI [2]: > 10 µM
TGI [3]: 9.41 µM
TGI [4]: > 10 µM
TGI [5]: > 10 µM
TGI [6]: 4.26 µM
TGI [7]: 7.66 µM
TGI [8]: > 10 µM
TGI [9]: > 10 µM
TGI [10]: 3.13 µM

CCOC(=O)c1cc2c(cc1Cl)SC(N(c1ccc(OC)cc1)S(=O)(=O)c1ccc(Cl)cc1)=NS2(=O)=O
GI50 [1]: 54.9 µM
TGI [1]: > 100 µM
GI50 [2]: 22.1 µM
TGI [2]: 54.4 µM
GI50 [3]: 0.666 µM
TGI [3]: > 100 µM
GI50 [4]: 18.4 µM
TGI [4]: 48.7 µM
GI50 [5]: > 100 µM
TGI [5]: > 100 µM
GI50 [6]: 22.1 µM
TGI [6]: 57 µM
GI50 [7]: 31.5 µM
TGI [7]: 88.6 µM
GI50 [8]: 20.8 µM
TGI [8]: 59.9 µM
GI50 [9]: 18.7 µM
TGI [9]: 38.3 µM
GI50 [10]: 21.2 µM
TGI [10]: 54.4 µM

C=C1CCC2C3(C)COC(c4ccccc4)OC3CCC2(C)C1/C=C/C1=CCOC1=O (centres undefined)
GI50 [1]: 14.1 µM
TGI [1]: 51.9 µM
GI50 [2]: 2.79 µM
TGI [2]: 8.84 µM
GI50 [3]: 1.89 µM
TGI [3]: 5.65 µM
GI50 [4]: 4.09 µM
TGI [4]: 16.8 µM
GI50 [5]: 9.58 µM
TGI [5]: 22 µM
GI50 [6]: 2.84 µM
TGI [6]: 13.8 µM
GI50 [7]: 3.17 µM
TGI [7]: > 100 µM
GI50 [8]: 9.15 µM
TGI [8]: 26.6 µM
GI50 [9]: 1.7 µM
TGI [9]: 4.25 µM
GI50 [10]: 8.67 µM
TGI [10]: 21.6 µM

Cc1nc2ccccc2c(/C=C/c2ccc(Cl)cc2)c1C(=O)/C=C/c1ccc(C(F)(F)F)cc1
GI50 [1]: 1.47 µM
TGI [1]: 2.79 µM
GI50 [2]: 0.292 µM
TGI [2]: 0.82 µM
GI50 [3]: 0.291 µM
TGI [3]: > 100 µM
GI50 [4]: 1.32 µM
TGI [4]: 3.25 µM
GI50 [5]: 0.821 µM
TGI [5]: 2.84 µM
GI50 [6]: 0.243 µM
TGI [6]: 0.655 µM
GI50 [7]: 0.619 µM
TGI [7]: 3.63 µM
GI50 [8]: 0.369 µM
TGI [8]: 1.29 µM
GI50 [9]: 0.181 µM
TGI [9]: 0.361 µM
GI50 [10]: 1.34 µM
TGI [10]: 2.63 µM

O=C(O)C1(C(=O)O)CCC1.[NH2-].[NH2-].[Pt+2]
GI50 [1]: 63.1 µM and 111 µM
TGI [1]: 236 µM and > 250 µM
GI50 [2]: 58.4 µM and 112 µM
TGI [2]: 139 µM and 195 µM
GI50 [3]: 73.5 µM and 22.7 µM
TGI [3]: > 250 µM
GI50 [4]: 224 µM and > 250 µM
TGI [4]: > 250 µM
GI50 [5]: 233 µM and > 250 µM
TGI [5]: > 250 µM
GI50 [6]: 180 µM and > 250 µM
TGI [6]: > 250 µM
GI50 [7]: 171 µM and 168 µM
TGI [7]: 228 µM and > 250 µM
GI50 [8]: 174 µM
TGI [8]: > 246 µM
GI50 [9]: 70.2 µM and 70.7 µM
TGI [9]: 211 µM and 175 µM
GI50 [10]: 109 µM and > 194 µM
TGI [10]: 218 µM and > 250 µM

C[n+]1c2cc(N)ccc2cc2ccc(N)cc21
TGI [1]: 5.63 µM [middle of 4 runs]
GI50 [2]: 1.58 µM [middle of 4 runs]
TGI [2]: 7.45 µM [middle of 4 runs]
GI50 [3]: 2.1 µM [middle of 4 runs]
GI50 [4]: 441 nM [middle of 4 runs]
GI50 [5]: 1.1 µM [middle of 4 runs]
GI50 [6]: 1.62 µM [middle of 4 runs]
GI50 [7]: 2.72 µM [middle of 4 runs]
GI50 [8]: 1.96 µM [middle of 4 runs]
TGI [8]: 4.78 µM [middle of 4 runs]
GI50 [9]: 0.956 µM and 2.26 µM and 1.82 µM
TGI [9]: 5.52 µM [middle of 4 runs]
GI50 [10]: 1.23 µM [middle of 4 runs]
TGI [10]: 2.57 µM [middle of 4 runs]

C/C1=C/C(=O)O[C@@H]2C[C@@H](CC[C@H](C)/C=C\C=C\CC1)O[C@@](O)([C@@H]1CSC(=O)N1)C2
TGI [1]: > 8.93 µM
TGI [2]: 4.25 µM
TGI [3]: > 10 µM
TGI [4]: 0.36 µM
TGI [5]: > 10 µM
TGI [6]: > 2.24 µM
TGI [7]: > 10 µM
TGI [8]: 5.41 µM
TGI [9]: > 3.88 µM
TGI [10]: > 2.76 µM

O=C(c1ccccc1)C1OC1c1ccc([N+](=O)[O-])cc1 (centres undefined)
GI50 [1]: 4.76 µM
TGI [1]: 46 µM
GI50 [2]: 3.84 µM
TGI [2]: 17.8 µM
GI50 [3]: 2.89 µM
TGI [3]: > 100 µM
GI50 [4]: 12.9 µM
TGI [4]: 30.4 µM
GI50 [5]: 19.6 µM
TGI [5]: 56.9 µM
GI50 [6]: 2.95 µM
TGI [6]: > 100 µM
GI50 [7]: 2.58 µM
TGI [7]: 9.36 µM
GI50 [8]: 24.8 µM
TGI [8]: > 100 µM
GI50 [9]: 1.81 µM
TGI [9]: 10.8 µM
GI50 [10]: 3.81 µM
TGI [10]: 16.7 µM

COc1cc(NCCCN=C(N)NC(N)=NC(C)C)c2ncccc2c1
GI50 [1]: 79.3 µM
TGI [1]: > 100 µM
GI50 [2]: 0.112 µM
TGI [2]: 0.876 µM
GI50 [3]: 7.61 µM
TGI [3]: 45.7 µM
GI50 [4]: 0.195 µM
TGI [4]: 1.92 µM
GI50 [5]: 12.8 µM
TGI [5]: 43.3 µM
GI50 [6]: 17.7 µM
TGI [6]: 35 µM
GI50 [7]: > 100 µM
TGI [7]: > 100 µM
GI50 [8]: 13.6 µM
TGI [8]: 35.2 µM
GI50 [9]: 11.8 µM
TGI [9]: 42.9 µM
GI50 [10]: 2.17 µM
TGI [10]: 6.38 µM

COCc1cc(C(=O)Nc2cc([C@H]3CC[C@@H](OC(=O)NC(C)C)C3)[nH]n2)n(C)n1
GI50 [1]: 13 µM
TGI [1]: > 100 µM
GI50 [2]: 2.55 µM
TGI [2]: 30.6 µM
GI50 [3]: 4.78 µM
TGI [3]: 70.2 µM
GI50 [4]: 3.15 µM
TGI [4]: 16.3 µM
GI50 [5]: 7.99 µM
TGI [5]: > 100 µM
GI50 [6]: 16.1 µM
TGI [6]: > 100 µM
GI50 [7]: > 100 µM
TGI [7]: > 100 µM
GI50 [8]: 14.9 µM
TGI [8]: 85 µM
GI50 [9]: 4.15 µM
TGI [9]: 75.5 µM
GI50 [10]: 15.6 µM
TGI [10]: 39.3 µM
